Assays:
p27 = experiment: Histochemical analysis of GEO tumors: p27; assay type: in vivo
Excerpt: Tumor specimens from the different groups of mice were examined by histochemical analysis at different time points to evaluate the expression of a variety of biological parameters. […] No other treatment was able to affect RIα expression.
Loda et al. (Nature Medicine 3:231–234 (1997)) discloses that the cyclin-dependent kinase (CDK) inhibitor p27 is […] related to cell entry into S phase and proliferation and that reduction of its expression correlates with poor prognosis in colon cancer patients.

[1] = test system: 1A9 human ovarian cancer cells; experiment: Soft agar growth of 1A9 cells; assay type: cell-based
Procedure: Cell lines. The 1A9 cell line is a clone of the human ovarian carcinoma cell line, A2780. 1A9 cells were kindly provided by Giannakakou, NCI Bethesda, Md., USA. Cells were maintained in RPMI medium supplemented with 10% heat-inactivated FBS, 20 mM HEPES, pH 7.4 penicillin (100 UI/ml), streptomycin (100 μg/ml) and 4 mM glutamine (ICN, Irvine, UK) in a humified atmosphere of 95% air and 5% CO2 at 37° C.
(§1) Soft agar growth. Cells (10^4 cells/well) were seeded in 0.5 ml of 0.3% Difco Noble agar (Difco, Detroit, Mich.) supplemented with complete culture medium. This suspension was layered over 0.5 ml of 0.8% agar-medium base layer in 24 multiwell cluster dishes (Becton Dickinson) and treated with various concentrations of HYB 165 or HYB508 every 48 hours for three times. After 12 days the cells were stained with nitroblue tetrazolium (Sigma, St. Louis, Mo.) and colonies larger than 0.05 mm were counted.

[2] = test system: OVCAR-3 ovarian cancer cells; experiment: Soft agar growth of OVCAR-3 cells; assay type: cell-based, human
Procedure: Cell lines. OVCAR human ovarian cancer cells were purchased from American Type Culture Collection (Rockville, Md., USA). Cells were maintained in DMEM and HAM'S F-12 (1:1) supplemented with 10% heat-inactivated FBS, 20 mM HEPES, pH 7.4, penicillin (100 UI/ml), streptomycin (100 μg/ml) and 4 mM glutamine (ICN, Irvine, UK) in a humified atmosphere of 95% air and 5% CO2 at 37° C.
Soft agar growth. Cells (10^4 cells/well) were seeded in 0.5 ml of 0.3% Difco Noble agar (Difco, Detroit, Mich.) supplemented with complete culture medium. This suspension was layered over 0.5 ml of 0.8% agar-medium base layer in 24 multiwell cluster dishes (Becton Dickinson) and treated with various concentrations of HYB 165 or HYB295 every 48 hours for three times. After 12 days the cells were stained with nitroblue tetrazolium (Sigma, St. Louis, Mo.) and colonies larger than 0.05 mm were counted.

[3] = test system: GEO human colon cancer cells; experiment: Soft agar growth of GEO cells; assay type: cell-based
Procedure: Cells (10^4 cells/well) were seeded in 0.5 ml of 0.3% Difco Noble agar (Difco, Detroit, Mich.) supplemented with complete culture medium. This suspension was layered over 0.5 ml of 0.8% agar-medium base layer in 24 multiwell cluster dishes (Becton Dickinson) and treated with various concentrations of paclitaxel (day 0). The HYB 165 was added after 12 hrs (day 1) and on day 2, 3 and 4. 12 days after the last treatment, cells were stained with nitroblue tetrazolium (Sigma) and colonies larger than 0.05 mm were counted.

[4] = test system: 1A9PTX10 human ovarian cancer cells; experiment: Soft agar growth of 1A9PTX10 cells; assay type: cell-based
Procedure: Cell lines. The 1A9PTX10 cell line, a paclitaxel (PTX)-resistant clone of the human ovarian carcinoma cell line 1A9, was isolated by exposing 1A9 cells to 5 ng/ml PTX in the presence of 5 μg/ml verapamil, a P glicoprotein antagonist. 1A9PTX10 cells were kindly provided by Dr. Giannakakou, NCI Bethesda, Md., USA. Cells were maintained in RPMI medium supplemented with 10% heat-inactivated FBS, 20 mM HEPES, pH 7.4, penicillin (100 UI/ml), streptomycin (100 μg/ml) and 4 mM glutamine (ICN, Irvine, UK) 15 ng/ml PTX and 5 μg/ml verapamil in a humified atmosphere of 95% air and 5% CO2 at 37° C. 7 days before experiments were performed, PTX and verapamil were removed from culture medium.
as §1

Q: What does the source list for “HYB 165: Hybrid 18-mer mixed backbone antisense to PKA RIα, GCGUGCCTCCTCACUGGC (SEQ ID NO:4), 2-O-methyl ribonucleotides at 5′ and 3′ ends (sugars by position and backbone not given here; 2'-O-methyl ribonucleotides at both ends, mixed backbone)”?
A: p27 expression (p27; single agent): able to increase p27 expression; increase in intensely positive cell staining for p27 (p27; taxol and antisense RIα in combination): 2.5 fold; inhibition of cell growth ([1]; 0.1 μM): approximately 5%; inhibition of cell growth ([1]; 0.5 μM): about 41%; inhibition of cell growth ([1]; 1 μM): about 90%; inhibition of cell growth ([1]; 2.5 μM): over 95%; inhibition of cell growth ([2]; 0.1 μM): approximately 25%; inhibition of cell growth ([2]; 0.5 μM): about 58%; inhibition of cell growth ([2]; 1 μM): about 75%; inhibition of cell growth ([2]; 2.5 μM): about 95%; growth inhibition ([3]; HYB 165 0.5 μM after paclitaxel 1 nM): 40%; growth inhibition ([3]; HYB 165 0.5 μM after paclitaxel 5 nM): 62%; growth inhibition ([3]; HYB 165 0.5 μM after paclitaxel 10 nM): 86%; growth inhibition ([3]; HYB 165 0.5 μM alone): about 20%; cooperative effect of the combination ([3]; HYB 165 0.5 μM, sequential combination with different doses of paclitaxel): cooperatively inhibit the growth of GEO cells; inhibition of cell growth ([4]; 0.1 μM): approximately 5%; inhibition of cell growth ([4]; 0.5 μM): about 43%; inhibition of cell growth ([4]; 1 μM): about 70%; inhibition of cell growth ([4]; 2.5 μM): over 85%
